Results reported in US20160089434A1, “COMBINATIONS OF AN ANTI-PD-L1 ANTIBODY AND A MEK INHIBITOR AND/OR A BRAF INHIBITOR” (NOVARTIS AG, priority 2013, published 2016).

Tests used:
[1] = tested on: CT26 mouse colon carcinoma cells; assay: Cell growth inhibition of CT26 cells, CellTiter-Glo (CTG) assay; assay type: cell-based; settings: 72 h, CT26 cells (KRAS G12D, MAPK1 and MET amplifications), 3 days, 10% FBS, read-out: IC50 value in cell proliferation inhibition
Description: CT26 mouse colon carcinoma cells from American Type Culture Collection (ATCC, cat#CRL-2638, lot#59227052) were cultured in RPMI with 10% fetal bovine serum (FBS) media. Cell growth inhibition was determined via CellTiter-Glo® (CTG) assay (Promega) according to the manufacturer's protocol. Approximately 24 hours after plating, cells were exposed to Compound A with three-fold serial dilutions. Cells were incubated with the compound in culture medium containing 10% FBS for 3 days. IC50 values were interpolated using the method of Levenberg & Marquardt and the equation: y=Vmax−{1−[xn/(Kn+xn)]}, where ‘K’ is equal to IC50 (Mager M E, Data Analysis in Biochemistry and Biophysics. New York: Academic Press. 1972).

pERK1/2 (T202/Y204) = assay: MAPK signaling inhibition in CT26 cells by western blot (pERK); assay type: cell-based, mouse; settings: 24 hours
Description: MAPK signaling inhibition by Compound A from CT 26 cells were determined by western blot analysis. CT26 cells were treated with Compound A in culture medium containing 10% FBS for 24 hours. Proteins were extracted for immunoblotting with anti-ERK1/2 and pERK1/2 (T202/Y204) from Santa Cruz Biotechnology. The membranes were developed with Odyssey Infrared Imaging System (LI-COR Biosciences).

CT26 tumors = assay: CT-26 murine carcinoma syngeneic mouse model; assay type: in vivo, BALB/C mice; settings: mono-therapy at 1 mg/kg orally once a day, after 18 days of treatment
Description: Female BALB/C mice (Charles River) were used. The animals received food and water ad libitum and were housed in compliance normal standard of care for Laboratory Animals. Tumors were established by subcutaneously implanting 5×10^4 CT26 cells in suspension into the right flanks of mice. Tumor […] were calculated using the equation (l×w^2)/2, where l and w refer to the larger and smaller dimensions collected at each measurement. Treatments began at day 11 after cell implantation with tumor size around 40-100 mm^3. Mice (n=10/group) were treated with Compound A at 1 mg/kg, orally once a day for 21 days, or anti-mouse antibodies, rat-IgG2a and αPD-L1 (10F.9G2 clone) at 10 mg/kg, intraperitoneally (i.p.) twice weekly for three weeks. Tumors were monitored and each animal was euthanized when it's tumor reached the endpoint volume of 2000 mm^3, ulcerated, or on the final day (Day 21), whichever came first. Percent tumor growth inhibition (% TGI) was defined as the difference between the mean tumor volume (MTV) of the designated control group and the MTV of the drug-treated group, expressed as a percentage of the MTV of the designated control group: % TGI=[1−(MTVdrug-treated/MTVcontrol)]×100.
Log-transformed tumor volume was analyzed using ANOVA, fitting a term for treatment. Differences between fitted treatment means were then calculated with associated raw p-values. […]

IC50 [1]: 20 nM
Compound: CC(=O)Nc1cccc(-n2c(=O)n(C3CC3)c(=O)c3c(Nc4ccc(I)cc4F)n(C)c(=O)c(C)c32)c1 [Compound A, N-{3-[3-cyclopropyl-5-(2-fluoro-4-iodo-phenylamino)6,8-dimethyl-2,4,7-trioxo-3,4,6,7-tetrahydro-2H-pyrido[4,3-d]pyrimidin-1-yl]phenyl}acetamide]
MAPK signaling inhibition measured by pERK (pERK1/2 (T202/Y204)): dose dependent MAPK signaling inhibition
TGI (tumor growth inhibition) (CT26 tumors): 61%
